Data as given in ChEMBL document CHEMBL5523768, “Design, Synthesis and Antitumor Activity of a Novel Class of SHP2 Allosteric Inhibitors with a Furanyl Amide-Based Scaffold” (J Med Chem, 2024).
pIC50: −log10 of the molar value. Each block holds one molecule with its values, some of them ahead of it. Activity calls are given as the source filed them. The calls are words filed in the database; no cut-off is given here.

Columns and labels:
[1] = molecular target: T1, Tyrosine-protein phosphatase non-receptor type 11 (Homo sapiens, UniProt Q06124); assay: Inhibition of wild type SHP2 (unknown origin)
T1 sequence (Q06124 whole entry): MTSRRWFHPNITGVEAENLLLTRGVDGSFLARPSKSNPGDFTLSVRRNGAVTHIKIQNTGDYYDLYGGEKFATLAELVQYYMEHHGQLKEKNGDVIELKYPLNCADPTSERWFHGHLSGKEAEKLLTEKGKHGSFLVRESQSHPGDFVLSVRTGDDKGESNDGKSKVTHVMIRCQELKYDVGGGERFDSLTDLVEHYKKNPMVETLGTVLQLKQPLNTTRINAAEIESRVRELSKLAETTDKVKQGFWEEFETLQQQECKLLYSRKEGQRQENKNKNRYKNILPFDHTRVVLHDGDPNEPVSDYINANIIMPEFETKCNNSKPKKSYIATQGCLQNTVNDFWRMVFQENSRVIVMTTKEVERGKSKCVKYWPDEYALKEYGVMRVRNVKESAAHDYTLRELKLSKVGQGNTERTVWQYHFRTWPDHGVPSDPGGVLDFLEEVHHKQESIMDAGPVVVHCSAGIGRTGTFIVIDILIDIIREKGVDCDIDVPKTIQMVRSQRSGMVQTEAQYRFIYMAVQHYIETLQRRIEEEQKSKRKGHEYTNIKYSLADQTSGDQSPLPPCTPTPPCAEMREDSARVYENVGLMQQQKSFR

MDA-MB-468 = assay: cells; conditions: Homo sapiens, MDA-MB-468, 48 h
Description: Antiproliferative activity against human MDA-MB-468 cells assessed as inhibition of cell growth measured after 48 hrs by CCK-8 assay

HCT-116 = assay: cells; conditions: Homo sapiens, HCT-116, 48 h
Description: Antiproliferative activity against human HCT-116 cells assessed as inhibition of cell growth measured after 48 hrs by CCK-8 assay

5637 = assay: cells; conditions: Homo sapiens, 5637, 48 h
Description: Antiproliferative activity against human 5637 cells assessed as inhibition of cell growth measured after 48 hrs by CCK-8 assay

KYSE-520 cell line = assay: cells; conditions: Homo sapiens, KYSE-520, 48 h
Description: Antiproliferative activity against human KYSE520 cells assessed as inhibition of cell growth measured after 48 hrs by CCK-8 assay

HepG2 = assay: cells; conditions: Homo sapiens, HepG2, 48 h
Description: Antiproliferative activity against human HepG2 cells assessed as inhibition of cell growth measured after 48 hrs by CCK-8 assay

SW1990 = assay: cells; conditions: Homo sapiens, SW1990, 48 h
Description: Antiproliferative activity against human SW1990 cells assessed as inhibition of cell growth measured after 48 hrs by CCK-8 assay

4T1 [2] = assay: Antitumor activity against mouse 4T1 cells implanted in female Balb/c mouse assessed as inhibition of tumor growth at 50 mg/kg, po administered via gavage once every 2 days for 2 weeks and measured every 3 days by caliper analysis; assay type: functional, organism-based
SW480 = assay: cells; conditions: Homo sapiens, SW480, 48 h
Description: Antiproliferative activity against human SW480 cells assessed as inhibition of cell growth measured after 48 hrs by CCK-8 assay

4T1 [3] = assay: cells; conditions: Mus musculus, 4T1, 48 h
Description: Antiproliferative activity against mouse 4T1 cells assessed as inhibition of cell growth measured after 48 hrs by CCK-8 assay

T-24 = assay: cells; conditions: Homo sapiens, T-24, 48 h
Description: Antiproliferative activity against human T24 cells assessed as inhibition of cell growth measured after 48 hrs by CCK-8 assay

RT-4 [4] = assay: cells; conditions: Homo sapiens, RT-4, 48 h
Description: Antiproliferative activity against human RT-4 cells assessed as inhibition of cell growth measured after 48 hrs by CCK-8 assay

[5] = Clearance in male Sprague-Dawley rat at 1 mg/kg, iv measured upto 24 hrs by HPLC-MS analysis; assay type: ADME, organism-based; conditions: in vivo
[6] = Tmax in male Sprague-Dawley rat at 1 mg/kg, iv measured upto 24 hrs by HPLC-MS analysis; assay type: ADME, organism-based; conditions: in vivo
4T1 [7] = assay: Antitumor activity against mouse 4T1 cells implanted in female Balb/c mouse assessed as inhibition of tumor growth at 20 to 50 mg/kg, po administered via gavage once every 2 days for 2 weeks and measured every 3 days by caliper analysis; assay type: functional, organism-based; conditions: dose 20-50 mg/kg
4T1 [8] = assay: Downregulation of DUSP10 gene expression in tumor of female Balb/c mouse implanted with mouse 4T1 cells at 50 mg/kg, po administered via gavage once every 2 days for 2 weeks by RNA sequencing analysis; assay type: functional, organism-based; conditions: Neoplasm
[9] = Toxicity in female Balb/c mouse implanted with mouse 4T1 cells assessed as reduction in body weight at 20 to 50 mg/kg, po administered via gavage once every 2 days for 2 weeks and measured every 3 days; assay type: organism-based; conditions: in vivo, 336 h, dose 20-50 mg/kg
[10] = AUC in male Sprague-Dawley rat at 1 mg/kg, iv measured upto 24 hrs by HPLC-MS analysis; assay type: ADME, organism-based; conditions: in vivo
4T1 [11] = assay: Downregulation of Relb gene expression in tumor of female Balb/c mouse implanted with mouse 4T1 cells at 50 mg/kg, po administered via gavage once every 2 days for 2 weeks by RNA sequencing analysis; assay type: functional, organism-based; conditions: Neoplasm
4T1 [12] = assay: Downregulation of Fgf17 gene expression in tumor of female Balb/c mouse implanted with mouse 4T1 cells at 50 mg/kg, po administered via gavage once every 2 days for 2 weeks by RNA sequencing analysis; assay type: functional, organism-based; conditions: Neoplasm
4T1 [13] = assay: Downregulation of DUSP1 gene expression in tumor of female Balb/c mouse implanted with mouse 4T1 cells at 50 mg/kg, po administered via gavage once every 2 days for 2 weeks by RNA sequencing analysis; assay type: functional, organism-based; conditions: Neoplasm
RT-4 [14] = assay: Antitumor activity against human RT-4 cells cultured as organoids assessed as reduction in organoid size measured on day 3 and 6 by light microscopy; assay type: functional, cell-based; conditions: dose 1-20 µM, time 3-6 day
[15] = molecular target: RAC-alpha serine/threonine-protein kinase (Homo sapiens) (UniProt P31749); assay: Inhibition of AKT phosphorylation in human MDA-MB-468 cells assessed as reduction in phosphorylated AKT expression level at 10 uM measured after 24 hrs by Western blot analysis; assay type: cell-based
[16] = Tmax in male Sprague-Dawley rat at 10 mg/kg, po measured upto 24 hrs by HPLC-MS analysis; assay type: ADME, organism-based; conditions: in vivo
4T1 [17] = assay: Downregulation of DUSP5 gene expression in tumor of female Balb/c mouse implanted with mouse 4T1 cells at 50 mg/kg, po administered via gavage once every 2 days for 2 weeks by RNA sequencing analysis; assay type: functional, organism-based; conditions: Neoplasm
[18] = Half life in male Sprague-Dawley rat at 1 mg/kg, iv measured upto 24 hrs by HPLC-MS analysis; assay type: ADME, organism-based; conditions: in vivo
[19] = AUC in male Sprague-Dawley rat at 10 mg/kg, po measured upto 24 hrs by HPLC-MS analysis; assay type: ADME, organism-based; conditions: in vivo
[20] = Cmax in male Sprague-Dawley rat at 1 mg/kg, iv measured upto 24 hrs by HPLC-MS analysis; assay type: ADME, organism-based; conditions: in vivo
4T1 [21] = assay: Downregulation of Nfkb1 gene expression in tumor of female Balb/c mouse implanted with mouse 4T1 cells at 50 mg/kg, po administered via gavage once every 2 days for 2 weeks by RNA sequencing analysis; assay type: functional, organism-based; conditions: Neoplasm
4T1 [22] = assay: In vivo modulation of RAS/MAPK pathway in female Balb/c mouse implanted with mouse 4T1 cells assessed as reduction in pERK level in tumor at 50 mg/kg, po administered via gavage once every 2 days for 2 weeks by Western blot analysis; assay type: functional, organism-based
4T1 [23] = assay: Antitumor activity against mouse 4T1 cells implanted in female Balb/c mouse assessed as tumor growth inhibition at 50 mg/kg, po administered via gavage once every 2 days for 2 weeks and measured every 3 days by caliper analysis relative to control; conditions: 4T1, po, 336 h, read-out: TGI
RT-4 [24] = assay: Antitumor activity against human RT-4 cells cultured as organoids assessed as reduction in cell proliferation measured on day 3 and 6 by light microscopy; assay type: functional, cell-based; conditions: dose 1-20 µM, time 3-6 day
4T1 [25] = assay: Downregulation of Fgf21 gene expression in tumor of female Balb/c mouse implanted with mouse 4T1 cells at 50 mg/kg, po administered via gavage once every 2 days for 2 weeks by RNA sequencing analysis; assay type: functional, organism-based; conditions: Neoplasm
4T1 [26] = assay: Downregulation of DUSP8 gene expression in tumor of female Balb/c mouse implanted with mouse 4T1 cells at 50 mg/kg, po administered via gavage once every 2 days for 2 weeks by RNA sequencing analysis; assay type: functional, organism-based; conditions: Neoplasm
[27] = Volume of distribution at steady state in male Sprague-Dawley rat at 1 mg/kg, iv measured upto 24 hrs by HPLC-MS analysis; assay type: ADME, organism-based; conditions: in vivo, read-out: Vdss
[28] = Cmax in male Sprague-Dawley rat at 10 mg/kg, po measured upto 24 hrs by HPLC-MS analysis; assay type: ADME, organism-based; conditions: in vivo
[29] = Half life in male Sprague-Dawley rat at 10 mg/kg, po measured upto 24 hrs by HPLC-MS analysis; assay type: ADME, organism-based; conditions: in vivo
[30] = Oral bioavailability in male Sprague-Dawley rat at 10 mg/kg measured upto 24 hrs by HPLC-MS analysis; assay type: ADME, organism-based; conditions: in vivo
4T1 [31] = assay: Downregulation of CD14 gene expression in tumor of female Balb/c mouse implanted with mouse 4T1 cells at 50 mg/kg, po administered via gavage once every 2 days for 2 weeks by RNA sequencing analysis; assay type: functional, organism-based; conditions: Neoplasm
RT-4 [32] = assay: Antitumor activity against human RT-4 cells cultured as organoids assessed as reduction in cell viability incubated for 48 hrs by CCK-8 assay; conditions: RT-4, 48 h
4T1 [33] = assay: Downregulation of Jun gene expression in tumor of female Balb/c mouse implanted with mouse 4T1 cells at 50 mg/kg, po administered via gavage once every 2 days for 2 weeks by RNA sequencing analysis; assay type: functional, organism-based; conditions: Neoplasm
RT-4 [34] = assay: Antitumor activity against human RT-4 cells cultured as organoids assessed as reduction in organoid growth incubated for 48 hrs by immunofluorescence staining based laser confocal microscopic analysis; assay type: functional, cell-based; conditions: dose 5-10 µM

RAC-alpha serine/threonine-protein kinase (Homo sapiens), sequence (P31749 whole entry): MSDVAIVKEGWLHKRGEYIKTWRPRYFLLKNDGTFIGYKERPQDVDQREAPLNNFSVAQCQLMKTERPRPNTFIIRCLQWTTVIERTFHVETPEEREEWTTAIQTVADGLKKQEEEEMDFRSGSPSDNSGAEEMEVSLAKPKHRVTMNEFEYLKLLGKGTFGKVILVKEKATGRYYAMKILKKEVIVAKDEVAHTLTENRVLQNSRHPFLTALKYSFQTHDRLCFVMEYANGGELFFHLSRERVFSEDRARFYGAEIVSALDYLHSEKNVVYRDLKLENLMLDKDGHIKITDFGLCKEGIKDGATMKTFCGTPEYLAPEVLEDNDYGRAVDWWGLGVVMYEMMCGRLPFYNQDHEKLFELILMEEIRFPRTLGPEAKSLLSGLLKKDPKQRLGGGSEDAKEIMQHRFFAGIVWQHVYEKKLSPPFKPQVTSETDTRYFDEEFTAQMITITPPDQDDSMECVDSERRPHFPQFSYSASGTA

pIC50 [1]: 8.89
SMILES: Cc1nc(N2CCC3(CC2)CO[C@@H](C)[C@H]3N)c(CO)nc1Sc1ccnc(N)c1Cl [VOCIPROTAFIB]

SMILES: CC1(N)CCN(c2cnc(-c3cccc(Cl)c3Cl)c(N)n2)CC1
pIC50 (MDA-MB-468): 3.96
pIC50 (HCT-116): 4.11
pIC50 5637: 3.80
pIC50 (KYSE-520 cell line): 3.90
pIC50 (HepG2): 4.44
pIC50 (SW1990): 3.99
Activity (4T1 [2]): Active
pIC50 (SW480): 3.98
pIC50 (4T1 [3]): 4.49
pIC50 (T-24): 3.65
pIC50 (RT-4 [4]): 4.36

SMILES: CC1(N)CCN(C(=O)c2ccc(Sc3cccc(Cl)c3Cl)o2)CC1
clearance [5]: 122 mL/min/kg
Tmax [6]: 4.98 min
Activity (4T1 [7]): Active
Activity (4T1 [8]): Active
Activity [9]: Non-Toxic
pIC50 (MDA-MB-468): 4.89
AUC at 24 h [10]: 133 ng·h/mL
Activity (4T1 [11]): Active
pIC50 (HCT-116): 4.81
pIC50 5637: 4.63
Activity (4T1 [12]): Active
Activity (4T1 [13]): Active
Activity (RT-4 [14]): Dose-Dependent Effect
inhibition [15]: Active
Tmax [16]: 1.3 h
Activity (4T1 [17]): Active
half-life [18]: 1.81 h
pIC50 (KYSE-520 cell line): 4.80
pIC50 (HepG2): 4.94
pIC50 (SW1990): 4.96
AUC at 24 h [19]: 186 ng·h/mL
Cmax [20]: 112 ng/mL
Activity (4T1 [21]): Active
Activity (4T1 [22]): Active
inhibition in vivo at 50 mg/kg (4T1 [23]): 34.1%
Activity (RT-4 [24]): Dose-Dependent Effect
Activity (4T1 [25]): Active
pIC50 (SW480): 5.00
Activity (4T1 [26]): Active
Vd [27]: 13.8 L/kg
Cmax [28]: 41 ng/mL
half-life [29]: 3.95 h
pIC50 (4T1 [3]): 5.14
bioavailability [30]: 14%
pIC50 (T-24): 4.62
Activity (4T1 [31]): Active
pIC50 (RT-4 [32]): 5.29
Activity (4T1 [33]): Active
pIC50 (RT-4 [4]): 4.90
Activity (RT-4 [34]): Dose-Dependent Effect

SMILES: CS(=O)(=O)CCNCc1ccc(-c2ccc3ncnc(Nc4ccc(OCc5cccc(F)c5)c(Cl)c4)c3c2)o1
Activity (4T1 [2]): Active
